In patent US9169288B2, “Peptidomimetics and their application” (Instytut Medycyny Doswiadczalnej i Klinicznej im. Miroslawa …, priority 2012, dated 2015):
Like-named read-outs stand apart in the source and are kept apart here.

Experiments:
Conditions in all cases: mouse, at 4 hours
[1] = test system: constipation induced by morphine
Protocol: The mice were divided into three groups one as control and two administered intraperitoneally with morphine hydrochloride (5 mg/kg).

[2] = test system: constipation induced by loperamide
[3] = test system: constipation induced by loperamide; remark: listed apart in the source
Protocol: The mice were divided into three groups one as control and two administered with loperamide hydrochloride (5 mg/kg).

tyrosyl-D-threonyl-glycyl-phenylalanyl-cinnamylpiperazine hydrochloride [peptidomimetic 2]
reversal of morphine effect on stools ([1]; peptidomimetic orally 30 minutes before morphine hydrochloride 5 mg/kg intraperitoneally): fully reversed morphine effect

Tyrosyl-D-arginyl-cinnamylpiperazine dihydrochloride [peptidomimetic 3]
stools relative to control group ([2]; loperamide 5 mg/kg with peptidomimetic 10 mg/kg in 20% gum arabic): 60%
wet weight of stools ([2]; loperamide 5 mg/kg with peptidomimetic 10 mg/kg in 20% gum arabic, control group 200 mg): 120 mg

CN(C)C(=O)C(CCN1CCC(O)(c2ccc(Cl)cc2)CC1)(c1ccccc1)c1ccccc1 [loperamide, reference compound]
wet weight of stools, opioid alone ([2]; loperamide 5 mg/kg orally in 20% gum arabic alone, control group 200 mg): 22 mg
wet weight of stools, opioid alone ([3]; loperamide hydrochloride 5 mg/kg alone, control group 200 mg): 15 mg

tyrosyl-D-alanyl-glycyl-cinnamylpiperazine hydrochloride [peptidomimetic 1]
stools relative to control group ([3]; peptidomimetic 10 mg/kg orally 30 minutes before loperamide hydrochloride 5 mg/kg): 80%
wet weight of stools ([3]; peptidomimetic 10 mg/kg orally 30 minutes before loperamide hydrochloride 5 mg/kg, control group 200 mg): 160 mg

CN1CC[C@]23c4c5ccc(O)c4O[C@H]2[C@@H](O)C=C[C@H]3[C@H]1C5 [morphine, reference compound]
wet weight of stools, opioid alone ([1]; morphine hydrochloride 5 mg/kg intraperitoneally alone, control group 200 mg): 25 mg
